Experiments:
Test in all cases: Large panel kinase profiling
Assay type in all cases: biochemical
Details in all cases: 1 μM test article, 1 mM ATP
[1] = target: T1, MAP3K12 (Homo sapiens, UniProt Q12852)
T1 sequence (Q12852 1-859): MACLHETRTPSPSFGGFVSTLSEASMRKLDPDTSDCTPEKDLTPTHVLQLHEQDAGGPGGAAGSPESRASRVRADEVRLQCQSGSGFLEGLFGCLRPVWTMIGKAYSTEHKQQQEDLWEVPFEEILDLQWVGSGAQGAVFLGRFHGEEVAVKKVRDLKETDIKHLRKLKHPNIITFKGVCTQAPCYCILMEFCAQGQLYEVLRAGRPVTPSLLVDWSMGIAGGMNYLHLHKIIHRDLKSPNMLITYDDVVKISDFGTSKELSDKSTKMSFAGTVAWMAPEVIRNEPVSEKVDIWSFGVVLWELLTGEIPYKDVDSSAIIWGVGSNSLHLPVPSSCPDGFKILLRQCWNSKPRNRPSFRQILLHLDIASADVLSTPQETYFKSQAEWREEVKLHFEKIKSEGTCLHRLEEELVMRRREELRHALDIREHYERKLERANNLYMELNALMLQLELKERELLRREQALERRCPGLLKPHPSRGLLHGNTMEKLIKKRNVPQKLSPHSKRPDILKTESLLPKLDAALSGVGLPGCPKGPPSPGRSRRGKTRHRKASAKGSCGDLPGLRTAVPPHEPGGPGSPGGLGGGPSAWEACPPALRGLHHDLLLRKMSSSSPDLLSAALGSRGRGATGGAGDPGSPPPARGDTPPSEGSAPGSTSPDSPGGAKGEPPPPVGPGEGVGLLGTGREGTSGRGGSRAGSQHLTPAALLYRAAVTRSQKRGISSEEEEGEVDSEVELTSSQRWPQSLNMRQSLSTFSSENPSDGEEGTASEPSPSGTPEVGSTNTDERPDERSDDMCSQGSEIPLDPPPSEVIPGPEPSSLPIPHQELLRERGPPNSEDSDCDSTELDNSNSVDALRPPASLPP
Procedure, shortened: (§1)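 Steps: combine kinase, CSox-Sensor substrate, 1 mM ATP and 1 μM compound; seal and incubate at 30° C.; read top fluorescence kinetically each minute, Ex 360 nm/Em 485 nm.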

[2] = target: T2, MYLK3 (Homo sapiens, UniProt Q32MK0)
T2 construct: AssayQuant Technologies, Inc. (assay service)
T2 sequence (Q32MK0 1-819): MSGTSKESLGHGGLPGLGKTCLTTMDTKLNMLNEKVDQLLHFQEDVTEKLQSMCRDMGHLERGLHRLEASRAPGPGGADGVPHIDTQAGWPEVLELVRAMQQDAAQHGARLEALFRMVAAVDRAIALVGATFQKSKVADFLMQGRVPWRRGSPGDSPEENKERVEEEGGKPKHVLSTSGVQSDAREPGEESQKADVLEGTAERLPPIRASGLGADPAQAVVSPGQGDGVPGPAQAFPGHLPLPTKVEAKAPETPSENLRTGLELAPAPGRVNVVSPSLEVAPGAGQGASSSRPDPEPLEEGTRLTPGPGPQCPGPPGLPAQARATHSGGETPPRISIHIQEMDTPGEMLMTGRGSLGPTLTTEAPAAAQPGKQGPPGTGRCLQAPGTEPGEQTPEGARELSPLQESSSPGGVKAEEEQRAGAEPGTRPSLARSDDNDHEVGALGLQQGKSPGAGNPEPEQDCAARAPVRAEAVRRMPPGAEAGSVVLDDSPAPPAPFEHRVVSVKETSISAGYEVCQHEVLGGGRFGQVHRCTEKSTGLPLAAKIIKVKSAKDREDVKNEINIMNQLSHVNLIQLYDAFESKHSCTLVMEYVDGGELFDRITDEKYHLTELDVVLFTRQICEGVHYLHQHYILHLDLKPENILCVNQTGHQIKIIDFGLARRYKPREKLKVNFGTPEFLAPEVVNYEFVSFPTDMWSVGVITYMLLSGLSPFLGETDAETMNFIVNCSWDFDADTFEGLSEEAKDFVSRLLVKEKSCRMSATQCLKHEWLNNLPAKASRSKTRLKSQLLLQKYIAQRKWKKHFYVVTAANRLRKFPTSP
Procedure, shortened: as §1

[3] = target: T3, EPHA8 (Homo sapiens, UniProt P29322)
T3 sequence (P29322 28-1005): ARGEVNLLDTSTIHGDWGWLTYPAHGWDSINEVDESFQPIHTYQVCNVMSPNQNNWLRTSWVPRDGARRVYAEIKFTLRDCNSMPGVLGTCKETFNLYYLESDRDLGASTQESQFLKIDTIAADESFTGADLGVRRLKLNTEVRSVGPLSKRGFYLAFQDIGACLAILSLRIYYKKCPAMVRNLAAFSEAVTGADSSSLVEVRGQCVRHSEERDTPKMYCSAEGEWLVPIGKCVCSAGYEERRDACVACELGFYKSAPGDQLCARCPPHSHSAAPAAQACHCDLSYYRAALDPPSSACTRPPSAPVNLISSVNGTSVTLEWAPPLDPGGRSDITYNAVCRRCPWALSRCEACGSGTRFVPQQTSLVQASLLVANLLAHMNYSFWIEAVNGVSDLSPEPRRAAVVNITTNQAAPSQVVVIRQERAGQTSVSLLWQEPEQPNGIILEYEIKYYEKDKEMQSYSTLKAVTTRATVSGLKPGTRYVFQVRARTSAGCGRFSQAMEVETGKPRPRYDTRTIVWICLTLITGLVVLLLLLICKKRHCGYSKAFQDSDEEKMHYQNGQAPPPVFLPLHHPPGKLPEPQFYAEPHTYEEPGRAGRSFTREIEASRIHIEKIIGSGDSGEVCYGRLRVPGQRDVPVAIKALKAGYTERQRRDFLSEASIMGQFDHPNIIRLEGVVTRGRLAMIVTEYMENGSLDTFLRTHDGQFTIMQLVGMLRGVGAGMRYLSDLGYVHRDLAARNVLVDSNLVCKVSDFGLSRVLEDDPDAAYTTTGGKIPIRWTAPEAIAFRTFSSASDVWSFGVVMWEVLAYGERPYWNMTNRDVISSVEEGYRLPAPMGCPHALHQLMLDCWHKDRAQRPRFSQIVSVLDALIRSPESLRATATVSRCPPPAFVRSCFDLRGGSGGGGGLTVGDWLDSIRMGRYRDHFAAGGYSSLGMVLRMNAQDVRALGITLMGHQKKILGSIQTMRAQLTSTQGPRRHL
Procedure, shortened: as §1

SMILES	inhibition at 1 µM [1]	inhibition at 1 µM [2]	inhibition at 1 µM [3]
C=CC(=O)N1CCCC(c2c(F)cc(C(N)=O)c3[nH]c4c(c23)CCCCC4)C1 (single isomer, unassigned) [Compound 5-6]	5%	21.5%	10%
C=CC(=O)N1CCC[C@@H](c2c(F)cc(C(N)=O)c3[nH]c4c(c23)CC2(CC4)CC2)C1 [Compound 6-2, (S)-5-(1-acryloylpiperidin-3-yl)-6-fluoro-1,2,4,9-tetrahydrospiro[carbazole-3,1′-cyclopropane]-8-carboxamide]	-18.8%	9.9%	-15.3%
C=CC(=O)N1CCC[C@@H](c2c(F)cc(C(N)=O)c3[nH]c4c(c23)CCC4)C1 [Compound 10-2, (S)-8-(1-acryloylpiperidin-3-yl)-7-fluoro-1,2,3,4-tetrahydrocyclo-penta[b]indole-5-carboxamide]	-27.7%	14.9%	-19.1%

From US20220009920A1 (GB005, Inc., priority 2020, published 2022)
